Test results from the kinase profiling compilation of Christmann-Franck et al. (2016).

Key:
Assay in all cases: radiometric filter-binding kinase assay, Kinase HotSpot
Settings in all cases: compound 0.5 µM; ATP 10 µM
[1] = biological target: CDK6 CCND3 (human) (UniProt P30281+Q00534)
[2] = biological target: NEK9 (human) (UniProt Q8TD19)
[3] = biological target: PIM1 (human) (UniProt P11309)
[4] = biological target: MARK3 (human) (UniProt P27448)
[5] = biological target: SGK3 (human) (UniProt Q96BR1)
[6] = biological target: PTK2B (human) (UniProt Q14289)
[7] = biological target: HIPK1 (human) (UniProt Q86Z02)
[8] = biological target: CAMK2A (human) (UniProt Q9UQM7)
[9] = biological target: MLTK (human) (UniProt Q9NYL2)
[10] = biological target: SGK2 (human) (UniProt Q9HBY8)
[11] = biological target: MAP3K2 (human) (UniProt Q9Y2U5)
[12] = biological target: STK11 (human) (UniProt Q15831)
STK11 (human), sequence (Q15831 whole entry, looked up): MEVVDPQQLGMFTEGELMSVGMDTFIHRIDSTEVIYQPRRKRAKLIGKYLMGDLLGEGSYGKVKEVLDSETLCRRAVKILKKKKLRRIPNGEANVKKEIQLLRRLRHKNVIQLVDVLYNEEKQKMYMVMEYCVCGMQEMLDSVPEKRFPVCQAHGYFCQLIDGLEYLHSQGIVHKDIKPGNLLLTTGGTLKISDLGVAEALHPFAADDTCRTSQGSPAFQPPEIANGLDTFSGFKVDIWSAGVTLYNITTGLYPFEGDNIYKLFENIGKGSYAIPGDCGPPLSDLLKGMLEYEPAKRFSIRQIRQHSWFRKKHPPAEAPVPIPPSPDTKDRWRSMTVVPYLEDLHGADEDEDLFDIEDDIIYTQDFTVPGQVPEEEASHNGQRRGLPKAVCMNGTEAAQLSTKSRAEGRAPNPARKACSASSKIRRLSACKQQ

[13] = biological target: KDR (human) (UniProt P35968)
[14] = biological target: FGFR1 (human) (UniProt P11362)
[15] = biological target: JAK3 JH1 JH2 (human) (UniProt P52333)
[16] = biological target: TEC (human) (UniProt P42680)
TEC (human), sequence (P42680 whole entry, looked up): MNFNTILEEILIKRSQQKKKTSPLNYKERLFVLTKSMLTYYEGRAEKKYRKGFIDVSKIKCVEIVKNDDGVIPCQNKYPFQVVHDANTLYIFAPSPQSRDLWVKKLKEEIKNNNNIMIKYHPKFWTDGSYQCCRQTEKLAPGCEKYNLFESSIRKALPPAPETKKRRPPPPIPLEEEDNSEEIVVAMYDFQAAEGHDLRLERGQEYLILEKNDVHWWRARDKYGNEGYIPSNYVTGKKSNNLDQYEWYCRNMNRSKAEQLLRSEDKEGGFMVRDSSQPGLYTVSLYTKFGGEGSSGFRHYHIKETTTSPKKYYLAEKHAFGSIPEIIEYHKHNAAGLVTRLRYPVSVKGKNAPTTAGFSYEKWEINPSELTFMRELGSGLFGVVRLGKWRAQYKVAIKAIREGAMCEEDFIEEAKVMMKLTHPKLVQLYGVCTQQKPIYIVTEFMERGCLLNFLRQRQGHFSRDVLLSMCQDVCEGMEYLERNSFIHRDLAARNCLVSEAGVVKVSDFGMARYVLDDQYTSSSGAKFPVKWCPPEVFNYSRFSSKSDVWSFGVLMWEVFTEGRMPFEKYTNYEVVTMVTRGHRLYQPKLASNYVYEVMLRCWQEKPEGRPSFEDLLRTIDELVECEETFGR

[17] = biological target: INSRR (human) (UniProt P14616)
[18] = biological target: PRKACA (human) (UniProt P17612)
[19] = biological target: WNK3 (human) (UniProt Q9BYP7)
[20] = biological target: CSNK1D (human) (UniProt P48730)
CSNK1D (human), sequence (P48730 whole entry, looked up): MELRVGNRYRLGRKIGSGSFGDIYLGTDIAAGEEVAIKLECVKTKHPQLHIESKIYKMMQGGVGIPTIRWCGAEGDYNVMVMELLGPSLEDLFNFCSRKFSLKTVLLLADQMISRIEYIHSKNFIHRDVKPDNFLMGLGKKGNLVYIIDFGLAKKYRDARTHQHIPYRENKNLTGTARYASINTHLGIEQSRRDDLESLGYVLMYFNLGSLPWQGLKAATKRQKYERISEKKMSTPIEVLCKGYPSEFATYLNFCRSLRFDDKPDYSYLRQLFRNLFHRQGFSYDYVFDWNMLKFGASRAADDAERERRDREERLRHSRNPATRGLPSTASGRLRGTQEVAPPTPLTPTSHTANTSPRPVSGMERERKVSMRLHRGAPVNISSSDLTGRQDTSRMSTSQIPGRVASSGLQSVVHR

[21] = biological target: PRKD1 (human) (UniProt Q15139)
[22] = biological target: MYLK (human) (UniProt Q15746)
[23] = biological target: EPHA5 (human) (UniProt P54756)
[24] = biological target: PASK (human) (UniProt Q96RG2)
[25] = biological target: MAPK10 (human) (UniProt P53779)
[26] = biological target: CDK2 CCNE1 (human) (UniProt P24941+P24864)
[27] = biological target: CAMK2G (human) (UniProt Q13555)
[28] = biological target: MAPK14 (human) (UniProt Q16539)
[29] = biological target: NEK3 (human) (UniProt P51956)
[30] = biological target: ULK1 (human) (UniProt O75385)
[31] = biological target: PRKCA (human) (UniProt P17252)
[32] = biological target: NEK11 (human) (UniProt Q8NG66)
[33] = biological target: DYRK4 (human) (UniProt Q9NR20)
[34] = biological target: ROCK2 (human) (UniProt O75116)
[35] = biological target: RPS6KA6 KD1 KD2 (human) (UniProt Q9UK32)
[36] = biological target: GRK6 (human) (UniProt P43250)
[37] = biological target: CSF1R (human) (UniProt P07333)
CSF1R (human), sequence (P07333 whole entry, looked up): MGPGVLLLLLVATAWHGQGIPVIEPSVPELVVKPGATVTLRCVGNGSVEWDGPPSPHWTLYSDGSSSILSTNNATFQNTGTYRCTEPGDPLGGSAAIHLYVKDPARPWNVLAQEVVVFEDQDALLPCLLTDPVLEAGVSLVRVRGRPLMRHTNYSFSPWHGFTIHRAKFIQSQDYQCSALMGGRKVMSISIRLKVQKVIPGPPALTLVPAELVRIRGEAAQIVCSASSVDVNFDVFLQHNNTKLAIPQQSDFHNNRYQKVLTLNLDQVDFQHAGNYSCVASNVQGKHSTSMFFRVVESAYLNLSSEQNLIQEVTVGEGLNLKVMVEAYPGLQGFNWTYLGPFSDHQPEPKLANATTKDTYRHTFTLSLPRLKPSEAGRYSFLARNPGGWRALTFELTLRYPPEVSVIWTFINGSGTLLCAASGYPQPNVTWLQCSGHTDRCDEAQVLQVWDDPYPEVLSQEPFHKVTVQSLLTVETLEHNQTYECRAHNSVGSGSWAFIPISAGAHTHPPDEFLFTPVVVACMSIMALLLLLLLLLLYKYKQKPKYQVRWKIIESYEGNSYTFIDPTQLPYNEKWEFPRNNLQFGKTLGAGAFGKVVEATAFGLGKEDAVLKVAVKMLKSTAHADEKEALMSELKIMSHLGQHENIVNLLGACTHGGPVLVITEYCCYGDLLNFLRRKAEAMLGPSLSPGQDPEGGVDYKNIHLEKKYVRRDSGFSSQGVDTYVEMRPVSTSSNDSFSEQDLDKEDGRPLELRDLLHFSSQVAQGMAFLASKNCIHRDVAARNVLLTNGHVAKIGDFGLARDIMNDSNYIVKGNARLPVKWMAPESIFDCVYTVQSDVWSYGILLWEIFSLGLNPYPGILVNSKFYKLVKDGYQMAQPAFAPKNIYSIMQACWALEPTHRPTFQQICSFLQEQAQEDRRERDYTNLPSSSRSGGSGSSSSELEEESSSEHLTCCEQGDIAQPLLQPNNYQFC

[38] = biological target: RPS6KA5 KD2 (human) (UniProt O75582)
RPS6KA5 KD2 (human), sequence (O75582 whole entry, looked up): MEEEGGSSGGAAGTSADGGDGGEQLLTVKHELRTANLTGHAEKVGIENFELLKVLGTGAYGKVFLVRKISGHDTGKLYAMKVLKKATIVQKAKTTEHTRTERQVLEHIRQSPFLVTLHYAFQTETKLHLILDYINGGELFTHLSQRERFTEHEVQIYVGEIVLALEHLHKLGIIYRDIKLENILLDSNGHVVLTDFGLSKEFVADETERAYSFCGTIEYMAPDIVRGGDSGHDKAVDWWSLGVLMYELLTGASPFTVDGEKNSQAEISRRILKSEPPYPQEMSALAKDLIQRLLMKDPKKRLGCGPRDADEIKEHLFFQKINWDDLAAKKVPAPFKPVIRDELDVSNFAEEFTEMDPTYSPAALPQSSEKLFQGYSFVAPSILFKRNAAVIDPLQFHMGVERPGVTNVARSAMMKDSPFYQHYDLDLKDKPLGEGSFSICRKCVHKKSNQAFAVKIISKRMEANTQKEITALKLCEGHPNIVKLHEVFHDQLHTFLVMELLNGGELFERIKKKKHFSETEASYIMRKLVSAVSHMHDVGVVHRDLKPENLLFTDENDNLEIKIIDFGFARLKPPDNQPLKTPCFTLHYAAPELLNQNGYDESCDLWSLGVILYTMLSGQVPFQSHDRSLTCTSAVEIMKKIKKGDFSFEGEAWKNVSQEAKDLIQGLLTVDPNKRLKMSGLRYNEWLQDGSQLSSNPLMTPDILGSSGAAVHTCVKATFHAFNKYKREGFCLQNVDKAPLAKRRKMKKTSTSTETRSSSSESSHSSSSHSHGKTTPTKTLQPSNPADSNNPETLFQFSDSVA

[39] = biological target: MAPK11 (human) (UniProt Q15759)
[40] = biological target: STK16 (human) (UniProt O75716)
[41] = biological target: PDPK1 (human) (UniProt O15530)
PDPK1 (human), sequence (O15530 whole entry, looked up): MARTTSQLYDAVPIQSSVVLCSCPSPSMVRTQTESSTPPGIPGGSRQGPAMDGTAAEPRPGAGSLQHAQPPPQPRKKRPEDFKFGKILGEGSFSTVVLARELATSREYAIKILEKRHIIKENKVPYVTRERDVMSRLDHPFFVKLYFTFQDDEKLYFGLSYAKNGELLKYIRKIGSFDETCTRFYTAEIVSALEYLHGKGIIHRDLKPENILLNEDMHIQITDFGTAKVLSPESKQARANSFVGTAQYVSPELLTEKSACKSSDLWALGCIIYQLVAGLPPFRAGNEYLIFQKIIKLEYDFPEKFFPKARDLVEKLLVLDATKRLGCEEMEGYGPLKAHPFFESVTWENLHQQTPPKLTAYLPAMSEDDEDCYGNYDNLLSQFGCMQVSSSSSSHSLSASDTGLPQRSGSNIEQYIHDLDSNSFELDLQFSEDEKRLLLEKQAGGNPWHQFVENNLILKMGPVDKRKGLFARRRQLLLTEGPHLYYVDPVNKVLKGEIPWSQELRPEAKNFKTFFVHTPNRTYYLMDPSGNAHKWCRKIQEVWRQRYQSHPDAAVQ

[42] = biological target: MAP3K14 (human) (UniProt Q99558)
MAP3K14 (human), sequence (Q99558 whole entry, looked up): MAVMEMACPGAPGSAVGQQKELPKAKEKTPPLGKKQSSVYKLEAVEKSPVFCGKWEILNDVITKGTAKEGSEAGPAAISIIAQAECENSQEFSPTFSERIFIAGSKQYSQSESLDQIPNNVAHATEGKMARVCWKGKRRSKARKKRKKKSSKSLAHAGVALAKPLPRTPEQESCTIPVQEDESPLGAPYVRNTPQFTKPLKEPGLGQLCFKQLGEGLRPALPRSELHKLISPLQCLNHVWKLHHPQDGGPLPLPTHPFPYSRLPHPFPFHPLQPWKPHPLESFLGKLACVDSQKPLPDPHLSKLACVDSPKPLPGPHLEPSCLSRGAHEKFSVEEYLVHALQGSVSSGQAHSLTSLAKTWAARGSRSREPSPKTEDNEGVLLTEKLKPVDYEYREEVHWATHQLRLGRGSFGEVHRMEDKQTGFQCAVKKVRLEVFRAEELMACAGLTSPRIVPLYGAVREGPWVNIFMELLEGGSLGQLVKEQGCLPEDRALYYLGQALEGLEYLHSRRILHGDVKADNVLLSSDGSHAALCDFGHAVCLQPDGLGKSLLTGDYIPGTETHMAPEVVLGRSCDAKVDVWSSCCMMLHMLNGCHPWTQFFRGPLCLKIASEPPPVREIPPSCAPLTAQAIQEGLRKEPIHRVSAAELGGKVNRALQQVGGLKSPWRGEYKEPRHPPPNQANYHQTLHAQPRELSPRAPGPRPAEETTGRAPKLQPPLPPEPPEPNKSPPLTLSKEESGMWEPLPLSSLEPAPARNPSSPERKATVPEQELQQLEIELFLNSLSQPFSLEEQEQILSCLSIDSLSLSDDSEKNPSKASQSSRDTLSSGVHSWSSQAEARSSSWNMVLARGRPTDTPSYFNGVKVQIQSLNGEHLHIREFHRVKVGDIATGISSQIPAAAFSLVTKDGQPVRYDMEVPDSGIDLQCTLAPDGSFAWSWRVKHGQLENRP

Structure (SMILES): COc1cc2ncnc(Nc3ccc(O)c(Br)c3)c2cc1OC
- residual activity [1]: 102%
- residual activity [2]: 104%
- residual activity [3]: 75.5%
- residual activity [4]: 98.8%
- residual activity [5]: 94.5%
- residual activity [6]: 86.9%
- residual activity [7]: 104%
- residual activity [8]: 98%
- residual activity [9]: 89%
- residual activity [10]: 95.1%
- residual activity [11]: 92.4%
- residual activity [12]: 103%
- residual activity [13]: 69.6%
- residual activity [14]: 93.4%
- residual activity [15]: 100%
- residual activity [16]: 108%
- residual activity [17]: 96.8%
- residual activity [18]: 97.7%
- residual activity [19]: 95.7%
- residual activity [20]: 89.7%
- residual activity [21]: 70.1%
- residual activity [22]: 84.6%
- residual activity [23]: 72.3%
- residual activity [24]: 57.9%
- residual activity [25]: 89%
- residual activity [26]: 95.7%
- residual activity [27]: 95.2%
- residual activity [28]: 87.3%
- residual activity [29]: 88.4%
- residual activity [30]: 87.2%
- residual activity [31]: 109%
- residual activity [32]: 103%
- residual activity [33]: 101%
- residual activity [34]: 89.9%
- residual activity [35]: 57.8%
- residual activity [36]: 104%
- residual activity [37]: 95.3%
- residual activity [38]: 93.4%
- residual activity [39]: 90.1%
- residual activity [40]: 104%
- residual activity [41]: 96.6%
- residual activity [42]: 82.6%
